In patent US8343923B2, “Use of notch signaling regulators for modulating osteogenesis” (Washington University, priority 2007, dated 2013):

Tests used:
Assay type in all cases: cell-based, mouse
[1] = tested on: wild type BMSCs; test: AP quantitative assay for high-density wild type BMSCs cultures in osteogenic medium; settings: wild type BMSCs at higher density under osteogenic conditions, with versus without DAPT; p<0.05
Procedure: FIG. 8G is representative of “type II” CFU-Fs stained for AP. FIG. 8H illustrates an AP quantitative assay for high-density wild type BMSCs cultures in osteogenic medium with or without DAPT. (*: p<0.05).
Cell cultures. Bone marrow harvests and high-density cultures were done as described in the art. For CFU-F assays, single-cell suspension of nucleated bone marrow cells were seeded at 3×10^6 on T25 flasks and cultured in DMEM (Invitrogen) containing 20% lot-selected FBS (Hyclone) and 1-Thioglycerol (Sigma) for 11-14 days without change of medium. For CFU-F assays, colonies with more than 50 small, round or spindle-shaped cells in direct contact with each other were scored as “type I” CFU-Fs. Clusters with more than 100 cells including large cells with multiple processes were counted as “type II” CFU-Fs. Differentiation of BMSCs was induced by either osteogenic (50 μg/ml ascorbic acid, 50 mM β-glycerol-2-phosphate) or adipogenic (0.5 μMIBMX, 60 μM indomethacine, 0.5 μM hydrocortisone) DMEM containing 10% FBS (Atlas). Primary osteoblasts were isolated from long bones by incubating cleaned small bone chips to allow cells to migrate onto culture dishes. NICD was detected by Western analyses using a specific antibody (Cell Signaling).
It was also assessed whether Notch signaling could directly control bone marrow mesenchymal progenitors and their differentiation. […]

[2] = tested on: bone marrow mesenchymal progenitors (CFU-Fs) in wild type BMSCs; test: CFU-F assay of wild type BMSCs in the presence or absence of DAPT
Excerpt: FIG. 8B depicts AP staining after 8 days in osteogenic medium following CFU-F assays. FIG. 8C illustrates AP quantitative assay for high-density BMSCs cultures in osteogenic medium. FIG. 8D is phase-contrast pictures of high-density BMSCs cultured in adipogenic medium. Note the lipid droplets in wild type cells. […] The arrow denotes a typical “type I” CFU-F. Cell cultures. Bone marrow harvests and high-density cultures were done as described in the art. For CFU-F assays, single-cell suspension of nucleated bone marrow cells were seeded at 3×10^6 on T25 flasks and cultured in DMEM (Invitrogen) containing 20% lot-selected FBS (Hyclone) and 1-Thioglycerol (Sigma) for 11-14 days without change of medium. For CFU-F assays, colonies with more than 50 small, round or spindle-shaped cells in direct contact with each other were scored as “type I” CFU-Fs. Clusters with more than 100 cells including large cells with multiple processes were counted as “type II” CFU-Fs. Differentiation of BMSCs was induced by either osteogenic (50 μg/ml ascorbic acid, 50 mM β-glycerol-2-phosphate) or adipogenic (0.5 μMIBMX, 60 μM indomethacine, 0.5 μM hydrocortisone) DMEM containing 10% FBS (Atlas). […] NICD was detected by Western analyses using a specific antibody (Cell Signaling). […] It was also assessed whether Notch signaling could directly control bone marrow mesenchymal progenitors and their differentiation. […]

[3] = tested on: "type II" CFU-Fs from wild type BMSCs; test: AP staining immediately following CFU-F assays; settings: assayed directly for AP activity without further culture in osteogenic conditions; DAPT-treated samples
Procedure: FIG. 8G is representative of “type II” CFU-Fs stained for AP. FIG. 8H illustrates an AP quantitative assay for high-density wild type BMSCs cultures in osteogenic medium with or without DAPT. (*: p<0.05). Cell cultures. Bone marrow harvests and high-density cultures were done as described in the art. For CFU-F assays, single-cell suspension of nucleated bone marrow cells were seeded at 3×10^6 on T25 flasks and cultured in DMEM (Invitrogen) containing 20% lot-selected FBS (Hyclone) and 1-Thioglycerol (Sigma) for 11-14 days without change of medium. For CFU-F assays, colonies with more than 50 small, round or spindle-shaped cells in direct contact with each other were scored as “type I” CFU-Fs. Clusters with more than 100 cells including large cells with multiple processes were counted as “type II” CFU-Fs. Differentiation of BMSCs was induced by either osteogenic (50 μg/ml ascorbic acid, 50 mM β-glycerol-2-phosphate) or adipogenic (0.5 μMIBMX, 60 μM indomethacine, 0.5 μM hydrocortisone) DMEM containing 10% FBS (Atlas). Primary osteoblasts were isolated from long bones by incubating cleaned small bone chips to allow cells to migrate onto culture dishes. NICD was detected by Western analyses using a specific antibody (Cell Signaling). It was also assessed whether Notch signaling could directly control bone marrow mesenchymal progenitors and their differentiation. […]

## C[C@H](NC(=O)Cc1cc(F)cc(F)c1)C(=O)N[C@H](C(=O)OC(C)(C)C)c1ccccc1 [DAPT, N—[N-(3,5-Difluorophenacetyl)-L-alanyl]-S-phenylglycine t-butyl ester]
[1]
  AP expression: significantly increased
[2]; 1 μM DAPT, number not altered versus untreated
  number of "type II" CFU-Fs: ~20 per 106 marrow cells
[2]; low-density culture, 1 μM DAPT (FIG. 8 legend)
  effect on "type I" CFU-Fs: completely eliminated
[3]
  AP staining of "type II" CFU-Fs: nearly all “type II” CFU-Fs from the DAPT-treated samples stained strongly positive
